Data reported in ChEMBL document CHEMBL3044904, “Mild and highly efficient copper (II) sulfate catalyzed one pot synthesis of 2-aryl benzimidazole using atmospheric air as an oxidant and its antibacterial study” (2013).
Values after ≈ are worked out from the molar mass of the structure shown.

Key:
Format in all cases: functional
[1] = system: Bacillus cereus; assay: Antibacterial activity against Bacillus cereus MTCC 7350 assessed as growth inhibition after 24 hr by two-fold serial dilution method; conditions: MTCC 7350, 24 h
[2] = system: Enterococcus faecalis; assay: Antibacterial activity against Enterococcus feacalis clinical isolate assessed as growth inhibition after 24 hr by two-fold serial dilution method
[3] = system: Escherichia coli; assay: Antibacterial activity against Escherichia coli ATCC 35218 assessed as growth inhibition after 24 hr by two-fold serial dilution method; conditions: ATCC 35218, 24 h
[4] = system: Staphylococcus aureus; assay: Antibacterial activity against Staphylococcus aureus ATCC 11632 assessed as growth inhibition after 24 hr by two-fold serial dilution method; conditions: ATCC 11632, 24 h
[5] = system: Salmonella typhi; assay: Antibacterial activity against Salmonella enterica subsp. enterica serovar Typhi ATCC 15499 assessed as growth inhibition after 24 hr by two-fold serial dilution method; conditions: ATCC 15499, 24 h
[6] = system: Pseudomonas aeruginosa; assay: Antibacterial activity against Pseudomonas aeruginosa ATCC 23564 assessed as growth inhibition after 24 hr by two-fold serial dilution method; conditions: ATCC 23564, 24 h

Compound	MIC [1] [µg/mL]	MIC [2] [µg/mL]	MIC [3] [µg/mL]	MIC [4] [µg/mL]	MIC [5] [µg/mL]	MIC [6] [µg/mL]
COc1ccc(-c2nc3ccccc3[nH]2)cc1	50 (≈ 223 µM)	25 (≈ 111 µM)	50 (≈ 223 µM)	12.5 (≈ 55.7 µM)	25 (≈ 111 µM)	25 (≈ 111 µM)
C(=C\c1ccc(-c2nc3ccccc3[nH]2)cc1)/c1ccccc1	6.25 (≈ 21.1 µM)	25 (≈ 84.4 µM)	50 (≈ 169 µM)	12.5 (≈ 42.2 µM)	25 (≈ 84.4 µM)	12.5 (≈ 42.2 µM)
c1ccc(-c2nc3ccccc3[nH]2)cc1	50 (≈ 257 µM)	12.5 (≈ 64.4 µM)	50 (≈ 257 µM)	12.5 (≈ 64.4 µM)	6.25 (≈ 32.2 µM)	12.5 (≈ 64.4 µM)
CC1(C)S[C@@H]2[C@H](NC(=O)[C@H](N)c3ccccc3)C(=O)N2[C@H]1C(=O)O [AMPICILLIN]	50 (≈ 143 µM)	400 (≈ 1140 µM)	400 (≈ 1140 µM)	50 (≈ 143 µM)	6.25 (≈ 17.9 µM)	50 (≈ 143 µM)
Oc1ccccc1-c1nc2ccccc2[nH]1	6.25 (≈ 29.7 µM)	50 (≈ 238 µM)	400 (≈ 1900 µM)	25 (≈ 119 µM)	400 (≈ 1900 µM)	25 (≈ 119 µM)
Clc1ccc(-c2nc3ccccc3[nH]2)cc1	6.25 (≈ 27.3 µM)	12.5 (≈ 54.7 µM)	25 (≈ 109 µM)	12.5 (≈ 54.7 µM)	25 (≈ 109 µM)	12.5 (≈ 54.7 µM)
Cc1ccc(-c2nc3ccccc3[nH]2)cc1	200 (≈ 960 µM)	50 (≈ 240 µM)	50 (≈ 240 µM)	25 (≈ 120 µM)	50 (≈ 240 µM)	12.5 (≈ 60 µM)
O=[N+]([O-])c1ccc(-c2nc3ccccc3[nH]2)cc1	25 (≈ 105 µM)	25 (≈ 105 µM)	50 (≈ 209 µM)	50 (≈ 209 µM)	25 (≈ 105 µM)	12.5 (≈ 52.3 µM)
O=C(O)c1cn(C2CC2)c2cc(N3CCNCC3)c(F)cc2c1=O [CIPROFLOXACIN]					3.12 (≈ 9.42 µM)	1.25 (≈ 3.77 µM)
Oc1ccc(-c2nc3ccccc3[nH]2)cc1	50 (≈ 238 µM)	100 (≈ 476 µM)	400 (≈ 1900 µM)	25 (≈ 119 µM)	400 (≈ 1900 µM)	25 (≈ 119 µM)
